Data published in publication PMC5861220, “The Cytochrome P450-Mediated Metabolism Alternation of Four Effective Lignans From Schisandra chinensis in Carbon Tetrachloride-Intoxicated Rats and Patients With Advanced Hepatocellular Carcinoma” (Frontiers in Pharmacology, 2018).
Where two headings read alike, the source gives them in different places.

Assays:
[1] = Pharmacokinetics of four lignans in rats after oral SC alcoholic extract; format: in vivo, rat
Experimental: The pharmacokinetic profiles of four lignans were studied in ALI rat after multiple oral administrations of SC alcoholic extract at dose of 1.5 g/kg/day. After the ALI rat was established, SC alcoholic extract suspended in 0.5% sodium carboxymethyl cellulose was given to ALI rats and the control via oral gavage once a day for 4 consecutive days. Before the last dosing, rats were fasted for 12 h while water was taken freely. Blood samples were collected at 0, 0.25, 0.5, 1, 2, 3, 4, 6, 8, 12, 24, 36, and 48 h after the last dosing. A cannula was surgically placed into the jugular vein for collection of blood samples (about 0.1 mL) and blood loss compensation using sterile isotonic saline in the pharmacokinetic study. Plasma was separated by centrifugation and stored at −20°C until analysis. Plasma concentrations of the four lignans were quantified using HPLC-MS analysis developed according to the reported method (Wang et al., [2008]).
Data fitting and pharmacokinetic parameter calculations were carried out using the Winnolin software. Non-compartmental analysis was used to calculate the pharmacokinetic parameters. Parameters, such as AUC and MRT, were calculated using statistical moment method.

[2] = system: rat intestine (jejunum segment); test: In situ intestinal perfusion of four lignans; format: in vivo; settings: for Perfusate (Percent of the initial dose) / Plasma (Percent of the initial dose) / Intestine (Percent of the initial dose) / Pblood / Plumen: 50 μM, n = 3; for Perfusate (Percent of the initial dose): intestinal perfusion 60 min; for Plasma (Percent of the initial dose) / Intestine (Percent of the initial dose): intestinal perfusion; for Plasma (Percent of the initial dose): mesenteric vein blood
Experimental: The surgical procedures of intestinal perfusion were conducted according to those published reports (Savina et al., [1981]). Hank's balanced salt solution (HBSS, pH 7.4) with four schisandra lignans (50 μM) at 37°C was infused into the jejunum segment at rate of 0.3 mL/min. Phenol Red (50 μM) was added to serve as a nonabsorbable marker for measuring water flux. Blood samples from mesenteric vein and perfusate were collected at 5-min interval. The plasma separated by centrifugation and perfusate was stored at −20°C until HPLC-MS analysis.
The permeability of four lignans across the rat intestine was calculated based on the disappearance of parent drug from the lumen (Plumen) as well as the appearance of the drug in blood (Pblood) using the following equations (Singhal et al., [1998]):
(1) Plumen = −Q/2πrlLnCout/Cin
(1) Pblood = ΔMB/Δt/2πrl{C}
where r is the radius of the perfused intestinal lumen; l is the length of the segment; Q is the flow rate of perfusate; Cin is the concentration of drug at the start of perfusion; and Cout is the steady-state concentration of drug exiting the lumen. ΔMB/Δt is the rate of drug appearance in mesenteric blood; and {C} is the logarithmic mean concentration of drug in the lumen.

rat liver = test: In situ hepatic perfusion of four lignans; format: in vivo; settings: 10 μM, n = 3; for Total amount of analyte in bile / Total amount of analyte in liver: hepatic perfusion 60 min; for AUC: perfusate AUC(0−1h)
Experimental: In situ liver perfusion was performed similarly as the method described previously (Uraki et al., [2016]). […] The perfusate consisted of Krebs–Hensleit buffer (pH 7.4) containing sodium taurocholate (4.75 mg/L), 1% bovine serum albumin, and glucose (1.2 g/L) was oxygenated using carbogen, 95% O2/5% CO2. The perfusate at 37°C was infused into the portal vein at a flow rate of 30 mL/min in a recirculatory manner. After 10-min equilibration, four schisandra lignans were added to the reservoir (final concentration of 10 μM). Perfusate (0.5 mL) and bile samples were collected at 0, 10, 20, 30, 40, 50, and 60 min after the addition of lignans. The same volume of blank perfusion buffer was immediately added to the reservoir after collection of the perfusate samples. After hepatic perfusion, rat was sacrificed and liver was removed, blotted dry, and weighed.

Caco-2 cell monolayer = test: Transport across Caco-2 cell monolayer; format: in vitro ADME; settings: for ER: ER = Papp (BL → AP)/Papp(AP → BL)
Experimental: (§1) Caco-2 cell (passage 38) was used in the transport experiments. Cells were seeded on polycarbonate filters (12 mm diameter, pore size […]) at 1 × 10^5/cm^2. The cell monolayer was formed 21 days post seeding when the transepithelial electrical resistance (TEER) was above 1,000 Ω• cm^2. Three concentration levels (5, 10, and 50 μM) were set for the four schisandra lignans in the study. After preincubation for 1 h at 37°C, the solution of the four lignans was respectively added to the apical (0.4 mL) or basolateral (0.6 mL) chamber for absorptive (AP → BL) and secretive (BL → AP) permeability test. At the specified timepoints (0.5, 1, 1.5 and 2 h), 50 μL samples (n = 3) were withdrawn from receiver chamber, and meanwhile, 50 μL fresh buffer was added. The four lignans were determined by HPLC-MS method.
(§2) The efflux rate (ER) was calculated by the formula ER = Papp (BL → AP)/Papp(AP → BL).

[3] = system: acute liver injury (ALI) rats; test: Biochemical indexes of liver and renal functions in CCl4-intoxicated (ALI) rats; format: in vivo, rat
Experimental: Male Sprague-Dawley rats, weighing 180–220 g, were obtained from Beijing Vital River Experimental Animal Co., Ltd. The animals were quarantined for 1 week prior to study and maintained on a 12-h light/12-h dark cycle at 22 ± 1°C and at 50–55% relative humidity with free access to solid pellet diet and water ad libitum throughout the study. All rats were assigned randomly to three groups, including acute liver injury (ALI) rat, SC-treated ALI rat and the control, 5 in each group. The ALI and SC-treated ALI rats were intraperitoneal injected two doses of the mixture of CCl4 and olive oil (1:1, V/V) at 2 mL/kg in a 24 h time interval (Huang et al., [2001]), while the control group was given the same volume of olive oil. Then, the SC-treated ALI rat was orally dosed with SC alcoholic extract suspended in 0.5% sodium carboxymethyl cellulose (CMC) at 1.5 g/kg/day for 4 days after CCl4 injection. The dosages were set according to the amounts of the four active lignans used previously for pharmacological studies and their contents in the extract (Chiu et al., [2002], [2007]; Cheng et al., [2013]). All animal protocols were approved by the Animal Care and Welfare Committee of the Academy of Military Medical Sciences. All animal procedures complied with the Guide for the Care and Use of Laboratory Animals issued by Beijing Association on Laboratory Animal Care (BALAC).
Serum aspartate transaminase (AST), alanine transaminase (ALT), alkaline phosphatase (ALP), lactate dehydrogenase (LDH), total bilirubin, blood urea nitrogen (BUN), and creatinine (CRE) levels were determined with commercial kits (Nanjing Jiancheng Bioengineering Institute, China).

[4] = Transport across Caco-2 cell monolayer; format: in vitro ADME; settings: human, 5 μM
Experimental: as §1, §2

[5] = CCl4-intoxicated rats, oral SC alcoholic extract 1.5 g/kg/day for 4 days, plasma, n = 5
[6] = Control (normal) rats, oral SC alcoholic extract 1.5 g/kg/day for 4 days, plasma, n = 5
[7] = ALI rat intoxicated with CCl4 vs control rats
[8] = CCl4-intoxicated rats vs control
[9] = Caco-2, with PSC833 (concentration not stated), + PSC833
[10] = Caco-2, ER = Papp (BL → AP)/Papp(AP → BL)

Molecule: schisantherin A
- AUC(0−t) [1, 5]: 99600 ± 45600 ng·h/mL
- CLz/F [1, 5]: 234.05 ± 115.74 L/h/kg
- Cmax [1, 5]: 3190 ± 1160 ng/mL
- MRT(0−t) [1, 5]: 19.84 ± 1.18 h
- Tmax [1, 5]: 9.60 ± 3.29 h
- t1/2 [1, 5]: 17.65 ± 3.32 h
- Reduction of systemic clearance (CLz/F) ([1]; CCl4 intoxicated rats vs control rats): ~89%
- AUC(0−t) [1, 6]: 11300 ± 3870 ng·h/mL
- Cmax [1, 6]: 569 ± 163 ng/mL
- MRT(0−t) [1, 6]: 15.42 ± 0.29 h
- Tmax [1, 6]: 5.00 ± 1.41 h
- t1/2 [1, 6]: 12.39 ± 2.12 h
- Perfusate (Percent of the initial dose) ([2]; CCl4-intoxicated rats): 92.85 ± 1.33% of the initial dose
- Plasma (Percent of the initial dose) ([2]; CCl4-intoxicated rats): 0.82 ± 0.04% of the initial dose
- Intestine (Percent of the initial dose) ([2]; CCl4-intoxicated rats): 1.95 ± 0.36% of the initial dose
- Pblood ([2]; CCl4-intoxicated rats): 0.060 ± 0.016 × 10^−4 cm/s
- Plumen ([2]; CCl4-intoxicated rats): 2.047 ± 0.373 × 10^−4 cm/s
- Perfusate (Percent of the initial dose) ([2]; Control rats): 92.47 ± 1.06% of the initial dose
- Plasma (Percent of the initial dose) ([2]; Control rats): 0.80 ± 0.07% of the initial dose
- Intestine (Percent of the initial dose) ([2]; Control rats): 1.65 ± 0.37% of the initial dose
- Pblood ([2]; Control rats): 0.047 ± 0.006 × 10^−4 cm/s
- Plumen ([2]; Control rats): 2.303 ± 0.163 × 10^−4 cm/s
- Increase of remaining amount in perfusate ([2]; intestinal autoperfusion (60 min), CCl4-treated rats vs control): not changed
- Total amount of analyte in bile (rat liver; CCl4-intoxicated rats): 1.61 ± 0.34 µg
- Total amount of analyte in liver (rat liver; CCl4-intoxicated rats): 17.15 ± 1.84 µg
- AUC (rat liver; CCl4-intoxicated rats): 4790 ± 30 ng·h/mL
- Total amount of analyte in bile (rat liver; Control rats): 1.48 ± 0.23 µg
- Total amount of analyte in liver (rat liver; Control rats): 12.36 ± 1.65 µg
- AUC (rat liver; Control rats): 4080 ± 140 ng·h/mL
- Papp(AP−BL) (Caco-2 cell monolayer; 5 μM): 1.33 ± 0.12 × 10^−6 cm/s
- Papp(BL−AP) (Caco-2 cell monolayer; 5 μM): 1.52 ± 0.26 × 10^−6 cm/s
- ER (Caco-2 cell monolayer; 5 μM): 1.14
- Papp(AP−BL) (Caco-2 cell monolayer; 10 μM): 1.81 ± 0.35 × 10^−6 cm/s
- Papp(BL−AP) (Caco-2 cell monolayer; 10 μM): 2.28 ± 0.47 × 10^−6 cm/s
- ER (Caco-2 cell monolayer; 10 μM): 1.26
- Papp(AP−BL) (Caco-2 cell monolayer; 50 μM): 1.43 ± 0.35 × 10^−6 cm/s
- Papp(BL−AP) (Caco-2 cell monolayer; 50 μM): 1.28 ± 0.24 × 10^−6 cm/s
- ER (Caco-2 cell monolayer; 50 μM): 0.89

Molecule: ClC(Cl)(Cl)Cl [CCl4, carbon tetrachloride]
- Decrease of content of liver microsomal CYP450 enzyme [3, 7]: 54%
- Increase of BUN [3, 7]: 30%
- Increase of liver index [3, 7]: 40%
- Increase of serum ALT [3, 7]: 720%
- Increase of serum AST [3, 7]: 30%
- BUN ([3]; CCl4-intoxicated rats): 18.3 ± 1.2 mg/dL
- CRE ([3]; CCl4-intoxicated rats): 0.8 ± 0.1 mg/dL
- Serum ALT increase [3, 8]: 8.2 folds
- Serum AST increase [3, 8]: 1.3 folds
- Liver index ([3]; CCl4-intoxicated rats, CCl4:olive oil (1:1) 2 mL/kg i.p., two doses): 38 ± 5 g/kg
- Liver P450 ([3]; CCl4-intoxicated rats, liver microsomal CYP450 content): 0.27 ± 0.12 nmol/mg
- ALP ([3]; CCl4-intoxicated rats, serum): 8.15 ± 0.09 IU/L
- ALT ([3]; CCl4-intoxicated rats, serum): 329 ± 49 IU/L
- AST ([3]; CCl4-intoxicated rats, serum): 268 ± 49 IU/L
- LDH ([3]; CCl4-intoxicated rats, serum): 605 ± 168 IU/L
- TB ([3]; CCl4-intoxicated rats, total bilirubin): 0.09 ± 0.02 mg/dL

Molecule: C[C@H]1O[C@@H](O[C@H]2[C@@H](O)C[C@H](O[C@H]3[C@@H](O)C[C@H](O[C@H]4CC[C@@]5(C)[C@H](CC[C@@H]6[C@@H]5C[C@@H](O)[C@]5(C)[C@@H](C7=CC(=O)OC7)CC[C@]65O)C4)O[C@@H]3C)O[C@@H]2C)C[C@H](O)[C@@H]1O [Digoxin, digoxin, reference compound]
- Papp A→B at 2 h, 5 μM [4, 9]: 1.46 ± 0.24 ×10⁻⁶ cm/s
- Papp B→A at 2 h, 5 μM [4, 9]: 2.38 ± 0.58 ×10⁻⁶ cm/s
- efflux ratio at 2 h, 5 μM ([4]; Caco-2, with PSC833 (concentration not stated), + PSC833, read-out: ER): 1.63
- Papp A→B at 2 h, 5 μM ([4]; Caco-2): 3.29 ± 4.02 ×10⁻⁶ cm/s
- Papp B→A at 2 h, 5 μM ([4]; Caco-2): 11.6 ± 0.82 ×10⁻⁶ cm/s
- efflux ratio at 2 h, 5 μM [4, 10]: 3.53

Molecule: CC(C)NCC(O)COc1cccc2ccccc12 (stereo not drawn) [Propranolol, propranolol, reference compound]
- Papp A→B at 2 h, 5 μM ([4]; Caco-2): 32.9 ± 6.03 ×10⁻⁶ cm/s
- Papp B→A at 2 h, 5 μM ([4]; Caco-2): 24.6 ± 1.8 ×10⁻⁶ cm/s
- efflux ratio at 2 h, 5 μM [4, 10]: 0.75
